Test results taken from patent US10881656B2, “HIF inhibitors and use thereof” (The General Hospital Corporation, priority 2008, dated 2021).
Several values for one entry are separate records, joined by “and”; a condition that tells them apart may be missing. Identical values can stand only once.

Legend:
[1] = biological target: T1, IRP2 binding to Ferritin-L IRE (Homo sapiens, UniProt P48200); assay: Electrophoretic mobility shift assay, Ferritin L IRE probe; settings: 786-O lysates, EMSA
T1 construct: when expressed in endogenous levels; endogenous in cells; host or cells: 786-O
T1 sequence (P48200 whole entry): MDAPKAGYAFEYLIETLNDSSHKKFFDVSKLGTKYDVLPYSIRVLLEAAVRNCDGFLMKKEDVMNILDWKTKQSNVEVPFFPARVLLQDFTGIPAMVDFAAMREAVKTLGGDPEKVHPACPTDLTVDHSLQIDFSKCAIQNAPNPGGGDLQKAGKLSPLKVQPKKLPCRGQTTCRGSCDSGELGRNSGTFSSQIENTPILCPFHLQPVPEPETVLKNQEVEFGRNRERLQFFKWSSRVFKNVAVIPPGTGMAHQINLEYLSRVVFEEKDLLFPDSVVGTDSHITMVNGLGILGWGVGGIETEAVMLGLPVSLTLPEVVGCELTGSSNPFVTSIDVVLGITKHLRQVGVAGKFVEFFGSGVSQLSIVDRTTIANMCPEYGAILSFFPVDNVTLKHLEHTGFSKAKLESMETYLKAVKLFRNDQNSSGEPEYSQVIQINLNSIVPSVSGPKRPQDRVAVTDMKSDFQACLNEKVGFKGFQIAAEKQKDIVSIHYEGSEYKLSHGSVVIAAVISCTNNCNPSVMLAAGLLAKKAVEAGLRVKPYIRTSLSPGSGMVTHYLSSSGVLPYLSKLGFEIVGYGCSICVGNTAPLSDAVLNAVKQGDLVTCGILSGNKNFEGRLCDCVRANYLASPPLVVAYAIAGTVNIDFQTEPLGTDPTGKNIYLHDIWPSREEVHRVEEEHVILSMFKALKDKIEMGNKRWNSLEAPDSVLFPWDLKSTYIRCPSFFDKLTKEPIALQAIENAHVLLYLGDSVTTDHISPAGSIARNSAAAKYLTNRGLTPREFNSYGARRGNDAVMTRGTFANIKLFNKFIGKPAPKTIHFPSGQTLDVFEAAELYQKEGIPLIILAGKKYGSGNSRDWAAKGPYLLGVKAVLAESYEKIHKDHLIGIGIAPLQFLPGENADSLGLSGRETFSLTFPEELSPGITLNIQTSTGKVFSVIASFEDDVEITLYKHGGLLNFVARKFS
Procedure: EMSAs were performed as described previously (Fillebeen et al., 2003). Briefly, 50 μg lysate from 786-O cells treated with medium only, DMSO, or compounds were incubated with 25,000 cpm wild-type or mutant radiolabeled HIF-2a IRE probe for 20 minutes at room temperature before loading onto non-denaturing acrylamide gels. Supershifts were performed identically, save that 0.2 μg control, IRP1 or IRP2 antibodies were also added. Total protein content was estimated by Bradford Assay (BioRad, 500-0006), and even loading for all experiments was confirmed by Western blot for B-Actin.
Inventors discovered that compound 76 increased the residual amount of IRP1 bound to the HIF-2a IRE in hypoxia, although not to the same extent as that observed in normoxic cells. […] Lastly, to further investigate the involvement of IRP2 in HIF-2a IRE, the inventors compared side by side IRP2 binding to HIF-2a and Ferritin-L IRE in 786-O cells, in conditions of normoxia or hypoxia and after treatment with compound 76 or DFO (FIG. 7E). While IRP2 binding was clearly detected on Ferritin IRE, the inventors were not able to detect measurable IRP2 binding on HIF-2a IRE.

IRP1 = IRP1 (Homo sapiens, UniProt P21399); assay: HIF-2a activity (EGLN3 qRT-PCR) in IRP knock down lines; settings: 786-O IRP knock down lines
IRP1, sequence (P21399 whole entry): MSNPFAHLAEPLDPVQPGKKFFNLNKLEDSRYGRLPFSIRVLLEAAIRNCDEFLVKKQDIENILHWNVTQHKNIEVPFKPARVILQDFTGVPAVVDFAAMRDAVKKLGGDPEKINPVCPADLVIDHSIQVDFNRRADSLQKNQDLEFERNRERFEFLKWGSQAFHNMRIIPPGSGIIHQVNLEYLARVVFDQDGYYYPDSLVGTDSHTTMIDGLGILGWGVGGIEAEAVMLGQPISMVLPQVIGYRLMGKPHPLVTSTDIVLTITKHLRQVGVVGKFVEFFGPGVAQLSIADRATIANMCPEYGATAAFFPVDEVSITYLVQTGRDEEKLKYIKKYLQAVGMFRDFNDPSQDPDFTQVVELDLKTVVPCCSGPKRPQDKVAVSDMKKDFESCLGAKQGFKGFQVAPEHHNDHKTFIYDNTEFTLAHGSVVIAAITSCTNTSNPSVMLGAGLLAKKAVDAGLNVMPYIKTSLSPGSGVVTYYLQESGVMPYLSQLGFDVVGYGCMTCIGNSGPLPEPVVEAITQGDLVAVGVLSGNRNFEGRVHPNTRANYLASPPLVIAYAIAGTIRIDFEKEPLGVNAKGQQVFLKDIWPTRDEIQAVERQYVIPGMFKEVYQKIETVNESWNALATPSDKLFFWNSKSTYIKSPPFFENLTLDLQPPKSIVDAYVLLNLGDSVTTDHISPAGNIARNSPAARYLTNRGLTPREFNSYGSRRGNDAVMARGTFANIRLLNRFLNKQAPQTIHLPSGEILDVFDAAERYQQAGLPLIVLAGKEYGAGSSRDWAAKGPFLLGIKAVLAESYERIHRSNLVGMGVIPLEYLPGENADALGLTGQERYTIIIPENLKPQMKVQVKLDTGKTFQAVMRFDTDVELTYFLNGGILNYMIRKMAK

HIF-2a = assay: Western blot for HIF-2a protein expression; assay type: cell-based, human; settings: A498 and UMRC2 cells
Fli1-GFP fish embryo = assay: Inhibition of vascularization in fish embryo; settings: 3microM; treated at 20 hpf, imaged 48-50 hpf
[2] = tested on: 7SV (SV40-luciferase) cells; assay: SV40-luciferase control reporter assay in 786-O derived 7SV cells; assay type: cell-based, human; settings: 48 hours
Procedure: (§1) The screen for small molecule inhibitors was performed in the Institute for Chemical and Cellular biology, Harvard Medical School. 7SV or 7H4 cells were plated onto 384-well plates. The next day compounds were added robotically to the medium, to a final concentration of approximately 10 μM. 24 hours later, media was aspirated and Passive Lysis Buffer (Promega) and Luciferase Assay Reagent II (Promega) were added. Luciferase activity was measured with an Analyst plate reader (LJL Biosystems). All experiments were performed in duplicate and the identity of lead compounds was confirmed by mass spectroscopy
(§2) Luciferase assays were performed using the Promega's Dual-luciferase Assay Reporter System (Promega, E1910) according to the manufacturer's instructions. Counts obtained from transient transfections were normalized for co-transfected Renilla luciferase. Stable clones were normalized to medium only treated wells.
Functionally validated HRE and control SV40 luciferase reporter constructs were stably introduced into VHL-deficient 786-O cells to generate 7H4 and 7SV lines, respectively (see FIG. 8A). […]
To validate the connectivity map-derived prediction that PGJ2 is involved in HIF signaling, the inventors treated HRE-luciferase expressing 786-O cells (7H4) and SV40-luciferase expressing control cells (7SV) with increasing doses of PGJ2. […] Luciferase activity was measured at 48 hours.

IRP2 = IRP2 expression in treated cells; assay type: cell-based, human
Text: However, IRP2 contributes very little—if at all—to the total IRP bound to the HIF2a IRE (Zimmer et al., 2008).

HIF-2a target genes = assay: HIF-2a target gene expression (Glut-1 Western blot, VEGF and IGFBP3 ELISA, EGLN3 qRT-PCR); assay type: cell-based, human; settings: treated 786-O cells
Procedure: ID NO: 1) and [NT] […] ID NO: 3) and [NT] ID NO: 4) for […] ID NO: 5) and [NT] ID NO: 6) for Transferrin Receptor 1 ([…] ID NO: 7) and [NT] ID NO: 8) for […] ID NO: 9) and [NT] ID NO: 10) for […] ID NO. 11) and [NT] ID NO: 12) for EGLN3. […] ID NO: 13) and [NT] ID NO: 14). […] VEGF or IGFBP3 ELISA was performed on the conditioned supernatant using Quantikine immunoassay kits (R&D Systems, DVE00 for VEGF, DGB300 for IGFBP3). […] Hypoxia stabilized HIF-2a in VHL-reconstituted WT8 cells, but treatment with compounds diminished hypoxia-induced HIF-2a expression (FIG. 3C).

786-O cells = assay: Global translation (35S loading control, polysome analysis); assay type: cell-based, human
Procedure: DMSO-, rapamycin- or PGJ2-treated 786-O cells were harvested from 10 cm plates for each polysomal analysis. Confluent cells were harvested and lysed in 300 μL ofRSB [10 mmol/L NaCl, 10 mmol/L Tris-HCl (pH 7.4), 15 mmol/L MgCl2] containing 100 μg/mL heparin, 1.2% Triton X-100, and 0.12% deoxycholate. Nuclei were pelleted for 3 min in a microcentrifuge at 4° C. The 300-μL extract was layered over 11.5 mL of a 15% to 45% (wt/wt) sucrose gradient with a 0.5-mL cushion of 45% sucrose. The gradients were centrifuged at 37,000 rpm for 2.5 h in an SW 41 (Beckman) rotor at 4° C. After centrifugation, the A260 was continuously monitored and recorded across the gradient using a Foxy Jr. Density Gradient fractionation system and UA-6 UV/VIS Detector (ISCO, Inc.).
To determine if PGJ2 decreases translation of the HIF2a message, the inventors evaluated the synthesis rate and stability of the newly synthesized HIF2a by an ^35S-methionine pulse chase experiment on PGJ2 or vehicle only DMSO treated 786-O cells. […] Loading control is 1/1000th of the cell lysate used in the respective immunoprecipitation directly loaded into an SDS-PAGE gel.

[3] = tested on: HIF-2a (HRE-luciferase, 7H4 cells); assay: HRE-luciferase reporter assay in 786-O derived 7H4 cells; assay type: cell-based, human
Procedure: as §1, §2
Functionally validated HRE and control SV40 luciferase reporter constructs were stably introduced into VHL-deficient 786-O cells to generate 7H4 and 7SV lines, respectively (see FIG. 8A). These lines were used to screen five commercial small molecule libraries (NCI Diversity Set, Chembridge, Maybridge, CEREP and Peakdale) and the ICCB Diversity-Oriented Synthesis (DOS) Diversity Set 2 (DDS2) and serine-derived peptidomimetic (SDP1) collections, totaling 58,000 compounds.
786-O cells were untreated (M, for medium only), mock-treated (D, for DMSO) or treated with compounds for two days before assaying for normalized luciferase activity. The resulting dose response curves are shown along with the compound structures in FIGS. 1A-1H).
To validate the connectivity map-derived prediction that PGJ2 is involved in HIF signaling, the inventors treated HRE-luciferase expressing 786-O cells (7H4) and SV40-luciferase expressing control cells (7SV) with increasing doses of PGJ2.

binding of IRP2 to Ferritin-L IRE [1] | SMILES | effect on HIF-2a activity when IRP1 is knocked down (IRP1) | HIF2a protein expression in other VHL-deficient renal cell carcinoma lines (HIF-2a) | Totals: Completed (Fli1-GFP fish embryo) | Totals: stalled (Fli1-GFP fish embryo) | completed of total, per animal (Fli1-GFP fish embryo) | SV40-driven luciferase activity [2] | IRP2 expression (IRP2) | expression of HIF-2a target genes (Glut-1, VEGF, IGFBP3, EGLN3) (HIF-2a target genes) | global cellular translation (35S-methionine loading control) (786-O cells; 10 μM) | ribosomes actively engaged in translation (polysome analysis) (786-O cells; 24 hours) | IC50 ([3]; 7H4 cells, luciferase measured at 48 hours, read-out: IC50app, HRE-driven luciferase activity) | HIF2a activity at various ambient oxygen concentrations ([3]; HRE-luciferase 786-O cells, 48 hours)
slightly enhanced | COC(=O)c1sccc1N/N=C(/C#N)S(C)(=O)=O [Compound 76, methyl 3-{2-[cyano(methylsulfonyl)methylene] hydrazino}thiophene-2-carboxylate] | inhibition of IRP1 is sufficient to block effect of compounds on HIF-2a activity | – | – | – | – | – | – | – | – | – | – | –
– | CC1(C)CC(=O)C=C(Sc2ccc(C#N)cc2[N+](=O)[O-])S1 [Compound 77, 4-[(2,2-dimethyl-4-oxo-3,4-dihydro-2H-thiin-6-yl)thio]-3-nitrobenzonitrile] | inhibition of IRP1 is sufficient to block effect of compounds on HIF-2a activity | – | – | – | – | – | – | – | – | – | – | –
– | CCCCC/C=C/C=C1/C(=O)C=C[C@@H]1C/C=C\CCCC(=O)O [PGJ2, 15-deoxy-Δ^12,14-prostaglandin J2] | – | decreased HIF2a protein expression | 47 | 39 | 6 of 17 (2×) and 17 of 18 and 9 of 17 (2×) | not affected | minimally increased | decrease | does not globally decrease cellular translation | little effect on the number of ribosomes actively engaged in translation | 5 µM | has the ability to repress HIF2a activity at a wide range of oxygen concentrations
